Measured values from ChEMBL document CHEMBL5465560, “Selectivity Literature for EUbOPEN Chemogenomic Library” (2024).
One block for each compound: values may come before it.

Key:
[1] = molecular target: Calcium/calmodulin-dependent protein kinase type II subunit beta (Homo sapiens) (UniProt Q13554); assay: Selectivity interaction (ActivX KiNativ screen (kinase selectivity in THP-1 cell lysates)) EUB0000639a CAMK2B; assay type: subcellular; settings: lysate, at 0.01 µM
[2] = molecular target: T1, Mitogen-activated protein kinase kinase kinase 2 (Homo sapiens) (UniProt Q9Y2U5); assay: Selectivity interaction (ActivX KiNativ screen (kinase selectivity in THP-1 cell lysates)) EUB0000639a MAP3K2; assay type: subcellular; settings: lysate, at 5 µM
T1 sequence (whole entry): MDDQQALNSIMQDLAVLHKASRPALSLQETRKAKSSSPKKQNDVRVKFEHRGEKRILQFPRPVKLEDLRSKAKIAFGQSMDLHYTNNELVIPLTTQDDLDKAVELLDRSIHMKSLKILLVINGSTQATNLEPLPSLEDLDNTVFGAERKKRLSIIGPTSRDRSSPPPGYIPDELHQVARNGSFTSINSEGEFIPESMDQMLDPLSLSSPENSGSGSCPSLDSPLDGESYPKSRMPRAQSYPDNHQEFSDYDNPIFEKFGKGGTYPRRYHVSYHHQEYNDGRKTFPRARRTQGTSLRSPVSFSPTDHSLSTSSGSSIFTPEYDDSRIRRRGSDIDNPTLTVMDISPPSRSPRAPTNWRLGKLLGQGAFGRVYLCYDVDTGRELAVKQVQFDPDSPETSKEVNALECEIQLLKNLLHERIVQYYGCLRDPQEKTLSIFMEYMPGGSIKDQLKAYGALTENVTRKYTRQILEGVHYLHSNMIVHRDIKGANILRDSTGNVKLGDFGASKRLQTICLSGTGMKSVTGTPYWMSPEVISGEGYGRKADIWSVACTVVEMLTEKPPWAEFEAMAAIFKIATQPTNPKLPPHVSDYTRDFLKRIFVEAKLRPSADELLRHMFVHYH

Aurora kinase B = Aurora kinase B (Homo sapiens, UniProt Q96GD4); assay: Selectivity interaction (ActivX KiNativ screen (kinase selectivity in THP-1 cell lysates)) EUB0000639a AURKB; assay type: subcellular; settings: lysate, at 5 µM
[3] = molecular target: Protein arginine N-methyltransferase 3 (Homo sapiens, UniProt O60678); settings: at 10 µM
[4] = molecular target: Death-associated protein kinase 1 (Homo sapiens, UniProt P53355); assay: Selectivity interaction (KinomeScan (DiscoverX)) EUB0000229b DAPK1; settings: at 10 µM
[5] = molecular target: Mitogen-activated protein kinase 14 (Homo sapiens, UniProt Q16539); assay: Selectivity interaction (KinomeScan (DiscoverX)) EUB0000092b MAPK14; settings: at 10 µM
[6] = molecular target: SRSF protein kinase 3 (Homo sapiens) (UniProt Q9UPE1); assay: Selectivity interaction (KinomeScan (DiscoverX)) EUB0000655a SRPK3; settings: at 10 µM
[7] = molecular target: T2, Cyclin-G-associated kinase (Homo sapiens) (UniProt O14976); assay: Selectivity interaction (KinomeScan (DiscoverX)) EUB0001619a GAK; settings: at 1 µM
T2 sequence (whole entry): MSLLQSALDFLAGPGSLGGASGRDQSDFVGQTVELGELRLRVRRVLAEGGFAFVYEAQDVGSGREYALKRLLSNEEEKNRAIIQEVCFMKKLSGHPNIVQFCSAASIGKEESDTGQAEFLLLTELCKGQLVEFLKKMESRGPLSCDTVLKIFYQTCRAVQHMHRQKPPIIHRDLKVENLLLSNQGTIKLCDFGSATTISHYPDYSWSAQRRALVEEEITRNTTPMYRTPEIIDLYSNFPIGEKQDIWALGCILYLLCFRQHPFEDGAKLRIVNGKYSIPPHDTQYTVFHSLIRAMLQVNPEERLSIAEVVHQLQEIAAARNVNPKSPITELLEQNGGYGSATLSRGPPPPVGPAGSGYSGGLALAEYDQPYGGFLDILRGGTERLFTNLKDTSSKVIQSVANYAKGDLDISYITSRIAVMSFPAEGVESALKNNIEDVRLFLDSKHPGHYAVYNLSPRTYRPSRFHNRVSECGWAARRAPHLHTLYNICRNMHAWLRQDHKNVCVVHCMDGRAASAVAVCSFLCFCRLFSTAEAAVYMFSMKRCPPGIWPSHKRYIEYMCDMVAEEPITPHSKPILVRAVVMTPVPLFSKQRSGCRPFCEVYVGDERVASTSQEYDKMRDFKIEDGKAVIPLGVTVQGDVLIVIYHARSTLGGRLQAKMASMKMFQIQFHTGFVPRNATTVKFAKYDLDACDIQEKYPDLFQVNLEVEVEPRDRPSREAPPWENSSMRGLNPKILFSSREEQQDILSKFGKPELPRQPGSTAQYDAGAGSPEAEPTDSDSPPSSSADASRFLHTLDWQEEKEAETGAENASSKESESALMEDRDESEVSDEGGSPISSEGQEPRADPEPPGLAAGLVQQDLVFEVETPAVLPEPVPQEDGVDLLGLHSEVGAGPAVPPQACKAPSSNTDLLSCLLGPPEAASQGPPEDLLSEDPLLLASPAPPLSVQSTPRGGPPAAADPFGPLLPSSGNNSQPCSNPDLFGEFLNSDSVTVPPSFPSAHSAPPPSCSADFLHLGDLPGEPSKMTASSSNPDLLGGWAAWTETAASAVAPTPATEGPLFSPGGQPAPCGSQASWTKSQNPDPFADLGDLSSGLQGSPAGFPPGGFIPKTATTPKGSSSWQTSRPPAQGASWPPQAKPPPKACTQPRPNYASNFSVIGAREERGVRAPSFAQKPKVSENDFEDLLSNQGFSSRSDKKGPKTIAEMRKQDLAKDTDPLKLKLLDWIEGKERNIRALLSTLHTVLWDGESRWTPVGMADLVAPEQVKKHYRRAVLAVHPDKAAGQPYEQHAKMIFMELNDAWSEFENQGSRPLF

Sequence of Mitogen-activated protein kinase 14 (Q16539 whole entry): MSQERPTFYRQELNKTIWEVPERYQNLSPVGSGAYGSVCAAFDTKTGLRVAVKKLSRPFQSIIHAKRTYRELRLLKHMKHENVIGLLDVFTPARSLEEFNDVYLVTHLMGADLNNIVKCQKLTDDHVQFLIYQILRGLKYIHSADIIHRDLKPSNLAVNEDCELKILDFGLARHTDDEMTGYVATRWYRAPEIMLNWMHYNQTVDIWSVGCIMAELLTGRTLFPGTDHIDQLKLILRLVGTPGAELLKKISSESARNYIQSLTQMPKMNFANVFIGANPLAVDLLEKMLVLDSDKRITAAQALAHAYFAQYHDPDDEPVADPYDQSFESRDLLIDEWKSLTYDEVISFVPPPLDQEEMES
Sequence of Death-associated protein kinase 1 (P53355 whole entry, looked up): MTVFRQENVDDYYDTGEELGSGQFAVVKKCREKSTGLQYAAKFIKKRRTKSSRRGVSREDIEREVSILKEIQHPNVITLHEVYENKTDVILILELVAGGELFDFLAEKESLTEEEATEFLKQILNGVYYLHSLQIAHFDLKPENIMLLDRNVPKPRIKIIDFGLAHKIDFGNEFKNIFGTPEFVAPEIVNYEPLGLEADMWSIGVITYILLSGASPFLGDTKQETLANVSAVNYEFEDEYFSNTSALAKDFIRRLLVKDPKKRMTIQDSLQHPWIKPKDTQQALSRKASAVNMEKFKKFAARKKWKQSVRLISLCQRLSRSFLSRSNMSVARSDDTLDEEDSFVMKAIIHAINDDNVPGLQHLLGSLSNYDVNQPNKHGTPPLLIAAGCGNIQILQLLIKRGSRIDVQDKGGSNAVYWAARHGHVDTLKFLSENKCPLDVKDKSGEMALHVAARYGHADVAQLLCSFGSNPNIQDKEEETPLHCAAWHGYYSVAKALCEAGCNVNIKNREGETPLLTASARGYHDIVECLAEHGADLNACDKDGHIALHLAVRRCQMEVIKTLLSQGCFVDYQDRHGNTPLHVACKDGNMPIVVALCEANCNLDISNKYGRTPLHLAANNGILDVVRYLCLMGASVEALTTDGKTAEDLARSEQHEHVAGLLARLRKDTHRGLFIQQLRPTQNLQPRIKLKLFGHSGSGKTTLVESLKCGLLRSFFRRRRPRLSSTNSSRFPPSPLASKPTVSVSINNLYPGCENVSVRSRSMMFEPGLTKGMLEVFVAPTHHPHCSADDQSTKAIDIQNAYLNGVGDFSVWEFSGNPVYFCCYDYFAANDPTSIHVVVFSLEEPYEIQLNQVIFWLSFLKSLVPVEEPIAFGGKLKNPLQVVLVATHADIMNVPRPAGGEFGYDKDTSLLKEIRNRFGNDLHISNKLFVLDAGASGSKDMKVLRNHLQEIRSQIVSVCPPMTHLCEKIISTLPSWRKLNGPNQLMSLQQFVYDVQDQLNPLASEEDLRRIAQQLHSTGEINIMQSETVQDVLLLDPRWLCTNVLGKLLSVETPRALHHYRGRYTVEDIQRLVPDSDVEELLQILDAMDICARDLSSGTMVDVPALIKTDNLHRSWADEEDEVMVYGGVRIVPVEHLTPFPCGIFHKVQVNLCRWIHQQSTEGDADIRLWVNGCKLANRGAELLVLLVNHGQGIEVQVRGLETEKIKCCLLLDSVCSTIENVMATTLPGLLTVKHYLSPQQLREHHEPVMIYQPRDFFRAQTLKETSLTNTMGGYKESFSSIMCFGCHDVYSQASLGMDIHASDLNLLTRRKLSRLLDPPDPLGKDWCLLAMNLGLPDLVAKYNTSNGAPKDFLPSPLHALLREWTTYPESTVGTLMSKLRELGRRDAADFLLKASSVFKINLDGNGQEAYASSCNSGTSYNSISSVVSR
Sequence of Aurora kinase B (Q96GD4 whole entry): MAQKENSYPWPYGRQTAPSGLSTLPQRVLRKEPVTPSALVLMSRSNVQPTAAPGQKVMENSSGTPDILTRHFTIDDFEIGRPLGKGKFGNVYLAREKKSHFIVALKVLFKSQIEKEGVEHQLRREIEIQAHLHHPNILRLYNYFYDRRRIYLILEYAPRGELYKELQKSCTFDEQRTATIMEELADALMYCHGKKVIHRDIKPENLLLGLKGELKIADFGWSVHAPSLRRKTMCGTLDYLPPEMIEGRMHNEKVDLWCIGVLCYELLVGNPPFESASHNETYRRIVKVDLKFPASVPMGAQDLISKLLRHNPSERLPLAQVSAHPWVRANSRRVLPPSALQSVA
Sequence of SRSF protein kinase 3 (Homo sapiens) (Q9UPE1 whole entry): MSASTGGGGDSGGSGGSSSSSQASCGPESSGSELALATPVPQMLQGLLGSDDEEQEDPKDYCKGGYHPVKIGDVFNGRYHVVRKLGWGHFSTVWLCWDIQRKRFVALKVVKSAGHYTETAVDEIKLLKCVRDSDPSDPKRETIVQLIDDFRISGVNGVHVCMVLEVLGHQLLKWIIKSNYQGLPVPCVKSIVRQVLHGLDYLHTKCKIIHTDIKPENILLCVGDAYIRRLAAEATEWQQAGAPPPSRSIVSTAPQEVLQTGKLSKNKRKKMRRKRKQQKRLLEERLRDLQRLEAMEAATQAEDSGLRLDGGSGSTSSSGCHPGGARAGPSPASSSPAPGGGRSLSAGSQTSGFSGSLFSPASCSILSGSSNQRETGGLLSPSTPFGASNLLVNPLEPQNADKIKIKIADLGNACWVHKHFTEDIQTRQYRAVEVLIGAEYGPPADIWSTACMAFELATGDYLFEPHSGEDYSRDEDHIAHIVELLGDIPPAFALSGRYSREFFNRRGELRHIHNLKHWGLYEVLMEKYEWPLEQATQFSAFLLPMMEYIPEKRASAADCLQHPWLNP
Sequence of Protein arginine N-methyltransferase 3 (O60678 2-531 limits assumed): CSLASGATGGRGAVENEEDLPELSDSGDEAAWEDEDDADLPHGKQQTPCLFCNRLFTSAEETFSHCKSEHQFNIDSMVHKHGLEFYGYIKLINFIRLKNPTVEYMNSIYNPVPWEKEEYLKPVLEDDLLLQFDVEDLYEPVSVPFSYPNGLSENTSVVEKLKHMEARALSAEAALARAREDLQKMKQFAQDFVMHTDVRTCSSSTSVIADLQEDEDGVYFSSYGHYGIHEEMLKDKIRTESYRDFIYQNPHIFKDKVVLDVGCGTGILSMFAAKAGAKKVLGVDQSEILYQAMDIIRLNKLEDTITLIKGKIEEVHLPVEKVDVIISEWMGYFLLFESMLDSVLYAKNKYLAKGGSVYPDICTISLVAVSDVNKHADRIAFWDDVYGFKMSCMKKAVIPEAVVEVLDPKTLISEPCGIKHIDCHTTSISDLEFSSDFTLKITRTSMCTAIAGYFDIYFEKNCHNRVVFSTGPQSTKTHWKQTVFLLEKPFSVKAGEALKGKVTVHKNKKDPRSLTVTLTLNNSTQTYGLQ
Sequence of Calcium/calmodulin-dependent protein kinase type II subunit beta (Homo sapiens) (Q13554 whole entry): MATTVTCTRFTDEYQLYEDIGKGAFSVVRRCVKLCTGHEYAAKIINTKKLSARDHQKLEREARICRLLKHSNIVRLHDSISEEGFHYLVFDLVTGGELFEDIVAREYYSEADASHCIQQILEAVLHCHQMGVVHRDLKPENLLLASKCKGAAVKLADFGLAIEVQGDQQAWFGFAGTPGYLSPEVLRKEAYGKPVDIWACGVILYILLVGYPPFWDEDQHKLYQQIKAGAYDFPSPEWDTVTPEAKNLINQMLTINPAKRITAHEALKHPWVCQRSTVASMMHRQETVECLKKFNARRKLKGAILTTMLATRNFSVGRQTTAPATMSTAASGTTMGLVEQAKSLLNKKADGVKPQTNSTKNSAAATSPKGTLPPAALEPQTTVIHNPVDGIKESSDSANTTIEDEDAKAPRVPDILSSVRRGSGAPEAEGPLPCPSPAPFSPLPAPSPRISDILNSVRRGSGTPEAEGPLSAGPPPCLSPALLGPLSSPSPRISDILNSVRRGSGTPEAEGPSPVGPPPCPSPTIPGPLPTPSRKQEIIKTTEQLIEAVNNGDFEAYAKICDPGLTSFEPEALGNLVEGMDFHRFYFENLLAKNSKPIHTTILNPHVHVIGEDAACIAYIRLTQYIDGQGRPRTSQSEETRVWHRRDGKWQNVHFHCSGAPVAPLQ

% of inhibition [1]: 1.4% | % of inhibition [2]: 12.6% | % of inhibition (Aurora kinase B): 64.4%
Compound: CC[C@@H]1[C@H](F)C(=O)N[C@@H]1COc1nccc2cc(C(N)=O)c(OC)cc12 [ZIMLOVISERTIB]

% activity [3]: > 90%
Compound: CNCCN1CCC(c2cc(CN(C)C(=O)c3cccc(Oc4ccccc4)c3)ccn2)CC1

Compound: COc1cc(N(C)c2ccnc3ccc(C(F)(F)F)cc23)cc(OC)c1OC
% binding [4]: 94%

Compound: CCC(=O)N1CCN(c2ccc(-n3c(=O)ccc4cnc5ccc(-c6cnc7ccccc7c6)cc5c43)cc2C(F)(F)F)CC1
% of control [5]: 90%

Compound: CN(C)CCOc1ccc(-c2nc(-c3ccncc3)c(-c3ccc4c(c3)CC/C4=N\O)[nH]2)cc1
% of control [6]: 100%

Compound: N#Cc1cccc(-c2c[nH]c3ncnc(N4CCOCC4)c23)c1
% of control [7]: 100%
